One series relates to TRPM7. As to conditions: cited from earlier work.
For the next series, the system named is TRPM6. Particulars: cited from earlier work.
The series “cryo-EM structure” concerns the molecule itself. In words: cryo-EM structure.

For the molecule `N#Cc1ccc(COC[C@H]2O[C@@H](n3c(NCc4ccc(Cl)c(Cl)c4)nc4c(N)ncnc43)[C@H](O)[C@@H]2O)cc1` [VER155008], the “inhibition of TRPM7” value in the series on TRPM7 was “potent inhibitor”. In addition, in the series with TRPM6, the “activity against TRPM6” value was “inactive”.

As for `c1ccc2c(c1)CCC[C@H]2Nc1nc2ccccc2[nH]1` [NS8593], the “inhibition of TRPM7” value with TRPM7 is “inhibits”. Moreover, in the series on TRPM6, the “inhibition of TRPM6” value is “inhibits”.

B1: C-terminally truncated mouse TRPM7 (residues 1-1280) (domain or fragment, UniProt Q923J1 1-1280, looked up)
chain: MSQKSWIESTLTKRECVYIIPSSKDPHRCLPGCQICQQLVRCFCGRLVKQHACFTASLAMKYSDVKLGEHFNQAIEEWSVEKHTEQSPTDAYGVINFQGGSHSYRAKYVRLSYDTKPEIILQLLLKEWQMELPKLVISVHGGMQKFELHPRIKQLLGKGLIKAAVTTGAWILTGGVNTGVAKHVGDALKEHASRSSRKICTIGIAPWGVIENRNDLVGRDVVAPYQTLLNPLSKLNVLNNLHSHFILVDDGTVGKYGAEVRLRRELEKTINQQRIHARIGQGVPVVALIFEGGPNVILTVLEYLQESPPVPVVVCEGTGRAADLLAYIHKQTEEGGNLPDAAEPDIISTIKKTFNFGQSEAVHLFQTMMECMKKKELITVFHIGSEDHQDIDVAILTALLKGTNASAFDQLILTLAWDRVDIAKNHVFVYGQQWLVGSLEQAMLDALVMDRVSFVKLLIENGVSMHKFLTIPRLEELYNTKQGPTNPMLFHLIRDVKQGNLPPGYKITLIDIGLVIEYLMGGTYRCTYTRKRFRLIYNSLGGNNRRSGRNTSSSTPQLRKSHETFGNRADKKEKMRHNHFIKTAQPYRPKMDASMEEGKKKRTKDEIVDIDDPETKRFPYPLNELLIWACLMKRQVMARFLWQHGEESMAKALVACKIYRSMAYEAKQSDLVDDTSEELKQYSNDFGQLAVELLEQSFRQDETMAMKLLTYELKNWSNSTCLKLAVSSRLRPFVAHTCTQMLLSDMWMGRLNMRKNSWYKVILSILVPPAILMLEYKTKAEMSHIPQSQDAHQMTMEDSENNFHNITEEIPMEVFKEVKILDSSDGKNEMEIHIKSKKLPITRKFYAFYHAPIVKFWFNTLAYLGFLMLYTFVVLVKMEQLPSVQEWIVIAYIFTYAIEKVREVFMSEAGKISQKIKVWFSDYFNVSDTIAIISFFVGFGLRFGAKWNYINAYDNHVFVAGRLIYCLNIIFWYVRLLDFLAVNQQAGPYVMMIGKMVANMFYIVVIMALVLLSFGVPRKAILYPHEEPSWSLAKDIVFHPYWMIFGEVYAYEIDVCANDSTLPTICGPGTWLTPFLQAVYLFVQYIIMVNLLIAFFNNVYLQVKAISNIVWKYQRYHFIMAYHEKPVLPPPLIILSHIVSLFCCVCKRRKKDKTSDGPKLFLTEEDQKKLHDFEEQCVEMYFDEKDDKFNSGSEERIRVTFERVEQMSIQIKEVGDRVNYIKRSLQSLDSQIGHLQDLSALTVDTLKTLTAQKASEASKVHNEITRELSISKHLAQNLID
As for B1, the stoichiometry N (as a rule, the number of molecules, sites or subunits per partner or assembly) in the series “cryo-EM structure” was determined as 4.
